From patent publication US6417247B1, “Polymer/ceramic composites” (priority 1997, dated 2002)

Assay: Release of model compounds from chitosan-calcium phosphate composites in PBS
Conditions: chitosan-TCP composite, PBS pH 7.4, 37° C., FIG. 12

time over which the model compound was released from the composite: ≤ 10 h
Structure (SMILES): O=c1[nH]cc(F)c(=O)[nH]1 [5-FU, 5-fluorouracil]
